Legend:
Format in all cases: functional
HT-29 = assay: Growth inhibition of human HT-29 cells at 10^-5 M incubated for 48 hrs by sulforhodamine B assay; conditions: HT-29, 48 h, read-out: GI
OVCAR-4 = assay: Growth inhibition of human OVCAR4 cells at 10^-5 M incubated for 48 hrs by sulforhodamine B assay; conditions: OVCAR-4, 48 h, read-out: GI
HL-60(TB) = assay: Growth inhibition of human HL-60(TB) cells at 10^-5 M incubated for 48 hrs by sulforhodamine B assay; conditions: HL-60, 48 h, read-out: GI
OVCAR-5 = assay: Growth inhibition of human OVCAR5 cells at 10^-5 M incubated for 48 hrs by sulforhodamine B assay; conditions: OVCAR-5, 48 h, read-out: GI
NCI-H460 = assay: Growth inhibition of human NCI-H460 cells at 10^-5 M incubated for 48 hrs by sulforhodamine B assay; conditions: NCI-H460, 48 h, read-out: GI
LOX IMVI = assay: Growth inhibition of human LOXIMVI cells at 10^-5 M incubated for 48 hrs by sulforhodamine B assay; conditions: read-out: GI
SK-MEL-5 = assay: Growth inhibition of human SK-MEL-5 cells at 10^-5 M incubated for 48 hrs by sulforhodamine B assay; conditions: SK-MEL-5, 48 h, read-out: GI
A549 = assay: Growth inhibition of human A549/ATCC cells at 10^-5 M incubated for 48 hrs by sulforhodamine B assay; conditions: A549, 48 h, read-out: GI
HCT-15 = assay: Growth inhibition of human HCT15 cells at 10^-5 M incubated for 48 hrs by sulforhodamine B assay; conditions: HCT-15, 48 h, read-out: GI
IGROV-1 = assay: Growth inhibition of human IGROV1 cells at 10^-5 M incubated for 48 hrs by sulforhodamine B assay; conditions: IGROV-1, 48 h, read-out: GI
KM12 = assay: Growth inhibition of human KM12 cells at 10^-5 M incubated for 48 hrs by sulforhodamine B assay; conditions: KM12, 48 h, read-out: GI
SW-620 = assay: Growth inhibition of human SW620 cells at 10^-5 M incubated for 48 hrs by sulforhodamine B assay; conditions: SW-620, 48 h, read-out: GI
U-251 = assay: Growth inhibition of human U251 cells at 10^-5 M incubated for 48 hrs by sulforhodamine B assay; conditions: U-251, 48 h, read-out: GI
MDA-MB-468 = assay: Growth inhibition of human MDA-MB-468 cells at 10^-5 M incubated for 48 hrs by sulforhodamine B assay; conditions: MDA-MB-468, 48 h, read-out: GI
NCI-H522 = assay: Growth inhibition of human NCI-H522 cells at 10^-5 M incubated for 48 hrs by sulforhodamine B assay; conditions: NCI-H522, 48 h, read-out: GI
SF-295 = assay: Growth inhibition of human SF295 cells at 10^-5 M incubated for 48 hrs by sulforhodamine B assay; conditions: SF-295, 48 h, read-out: GI
UO-31 = assay: Growth inhibition of human UO31 cells at 10^-5 M incubated for 48 hrs by sulforhodamine B assay; conditions: UO-31, 48 h, read-out: GI
NCI-H226 = assay: Growth inhibition of human NCI-H226 cells at 10^-5 M incubated for 48 hrs by sulforhodamine B assay; conditions: NCI-H226, 48 h, read-out: GI
SK-MEL-28 = assay: Growth inhibition of human SK-MEL-28 cells at 10^-5 M incubated for 48 hrs by sulforhodamine B assay; conditions: SK-MEL-28, 48 h, read-out: GI
SF-268 = assay: Growth inhibition of human SF268 cells at 10^-5 M incubated for 48 hrs by sulforhodamine B assay; conditions: SF-268, 48 h, read-out: GI
BT-549 = assay: Growth inhibition of human BT549 cells at 10^-5 M incubated for 48 hrs by sulforhodamine B assay; conditions: BT-549, 48 h, read-out: GI
MCF7 = assay: Growth inhibition of human MCF7 cells at 10^-5 M incubated for 48 hrs by sulforhodamine B assay; conditions: MCF7, 48 h, read-out: GI
ACHN = assay: Growth inhibition of human ACHN cells at 10^-5 M incubated for 48 hrs by sulforhodamine B assay; conditions: read-out: GI
MOLT-4 = assay: Growth inhibition of human MOLT4 cells at 10^-5 M incubated for 48 hrs by sulforhodamine B assay; conditions: MOLT-4, 48 h, read-out: GI
DU-145 = assay: Growth inhibition of human DU145 cells at 10^-5 M incubated for 48 hrs by sulforhodamine B assay; conditions: DU-145, 48 h, read-out: GI
EKVX = assay: Growth inhibition of human EKVX cells at 10^-5 M incubated for 48 hrs by sulforhodamine B assay; conditions: read-out: GI
CAKI-1 = assay: Growth inhibition of human Caki1 cells at 10^-5 M incubated for 48 hrs by sulforhodamine B assay; conditions: CAKI-1, 48 h, read-out: GI
UACC-257 = assay: Growth inhibition of human UACC257 cells at 10^-5 M incubated for 48 hrs by sulforhodamine B assay; conditions: UACC-257, 48 h, read-out: GI
HOP-62 = assay: Growth inhibition of human HOP62 cells at 10^-5 M incubated for 48 hrs by sulforhodamine B assay; conditions: HOP-62, 48 h, read-out: GI
NCI/ADR-RES = assay: Growth inhibition of human NCI/ADR-RES cells at 10^-5 M incubated for 48 hrs by sulforhodamine B assay; conditions: read-out: GI
CCRF-CEM = assay: Growth inhibition of human CCRF-CEM cells at 10^-5 M incubated for 48 hrs by sulforhodamine B assay; conditions: read-out: GI
COLO 205 = assay: Growth inhibition of human COLO205 cells at 10^-5 M incubated for 48 hrs by sulforhodamine B assay; conditions: COLO 205, 48 h, read-out: GI
MDA-MB-435 = assay: Growth inhibition of human MDA-MB-435 cells at 10^-5 M incubated for 48 hrs by sulforhodamine B assay; conditions: MDA-MB-435, 48 h, read-out: GI
Hs-578T = assay: Growth inhibition of human Hs 578T cells at 10^-5 M incubated for 48 hrs by sulforhodamine B assay; conditions: read-out: GI
SNB-75 = assay: Growth inhibition of human SNB75 cells at 10^-5 M incubated for 48 hrs by sulforhodamine B assay; conditions: SNB-75, 48 h, read-out: GI
HCT-116 = assay: Growth inhibition of human HCT116 cells at 10^-5 M incubated for 48 hrs by sulforhodamine B assay; conditions: HCT-116, 48 h, read-out: GI
786-0 = assay: Growth inhibition of human 786-0 cells at 10^-5 M incubated for 48 hrs by sulforhodamine B assay; conditions: 786-0, 48 h, read-out: GI
HCC 2998 = assay: Growth inhibition of human HCC2998 cells at 10^-5 M incubated for 48 hrs by sulforhodamine B assay; conditions: HCC 2998, 48 h, read-out: GI

SMILES	inhibition of growth at 10 µM (HT-29)	inhibition of growth at 10 µM (OVCAR-4)	inhibition of growth at 10 µM (HL-60(TB))	inhibition of growth at 10 µM (OVCAR-5)	inhibition of growth at 10 µM (NCI-H460)	inhibition of growth at 10 µM (LOX IMVI)	inhibition of growth at 10 µM (SK-MEL-5)	inhibition of growth at 10 µM (A549)	inhibition of growth at 10 µM (HCT-15)	inhibition of growth at 10 µM (IGROV-1)	inhibition of growth at 10 µM (KM12)	inhibition of growth at 10 µM (SW-620)	inhibition of growth at 10 µM (U-251)	inhibition of growth at 10 µM (MDA-MB-468)	inhibition of growth at 10 µM (NCI-H522)	inhibition of growth at 10 µM (SF-295)	inhibition of growth at 10 µM (UO-31)	inhibition of growth at 10 µM (NCI-H226)	inhibition of growth at 10 µM (SK-MEL-28)	inhibition of growth at 10 µM (SF-268)	further results
O=[N+]([O-])c1cccc(C2NC(=S)Nc3c2sc2ccc(Cl)cc32)c1 (stereo unspecified)	4%	8.46%	-2.41%	0.45%	11.4%	7.83%	4.44%	2.45%	-0.11%	27.5%	1.91%	-0.61%	4.4%	5.75%	13.7%	5.63%	-6.1%	20.5%	-8.2%	4.17%	inhibition of growth at 10 µM (BT-549): -0.23%; inhibition of growth at 10 µM (MCF7): -8.3%; inhibition of growth at 10 µM (ACHN): 13%; inhibition of growth at 10 µM (MOLT-4): 9.49%; inhibition of growth at 10 µM (DU-145): -8.3%; inhibition of growth at 10 µM (EKVX): 26.5%; inhibition of growth at 10 µM (CAKI-1): 22%; inhibition of growth at 10 µM (UACC-257): -0.4%; inhibition of growth at 10 µM (HOP-62): 21.8%; inhibition of growth at 10 µM (NCI/ADR-RES): -1.46%; inhibition of growth at 10 µM (CCRF-CEM): -11.8%; inhibition of growth at 10 µM (COLO 205): -3.44%; inhibition of growth at 10 µM (MDA-MB-435): -3.92%; inhibition of growth at 10 µM (Hs-578T): 11.4%; inhibition of growth at 10 µM (SNB-75): 24.4%; inhibition of growth at 10 µM (HCT-116): 13.4%; inhibition of growth at 10 µM (786-0): 1.48%; inhibition of growth at 10 µM (HCC 2998): -13.8%
O=C1SC2=Nc3c(sc4ccc(Cl)cc34)C(c3ccc4ccccc4c3)N2C1=O (stereo unspecified)	-2.87%	23.6%	-4.12%	-1.12%	4.51%	1.85%	5.6%	1.04%	7.44%	26.4%	7.8%	4.8%	-1.96%	11.2%	16.6%	-2.51%	44.4%	24%	-13.2%	12.7%	inhibition of growth at 10 µM (BT-549): -19.9%; inhibition of growth at 10 µM (MCF7): 68.7%; inhibition of growth at 10 µM (ACHN): 14.5%; inhibition of growth at 10 µM (MOLT-4): 11.9%; inhibition of growth at 10 µM (DU-145): -1.57%; inhibition of growth at 10 µM (EKVX): 12.9%; inhibition of growth at 10 µM (CAKI-1): 30.1%; inhibition of growth at 10 µM (UACC-257): -0.63%; inhibition of growth at 10 µM (HOP-62): 8.58%; inhibition of growth at 10 µM (NCI/ADR-RES): 4.45%; inhibition of growth at 10 µM (CCRF-CEM): -5.01%; inhibition of growth at 10 µM (COLO 205): -2.01%; inhibition of growth at 10 µM (MDA-MB-435): 2.92%; inhibition of growth at 10 µM (Hs-578T): 1.4%; inhibition of growth at 10 µM (SNB-75): 5.78%; inhibition of growth at 10 µM (HCT-116): 23.4%; inhibition of growth at 10 µM (786-0): 2.6%; inhibition of growth at 10 µM (HCC 2998): -27.7%

Reference: ChEMBL document CHEMBL4414672, “Synthesis of certain benzothieno[3,2-d]pyrimidine derivatives as a selective SIRT2 inhibitors” (Eur J Med Chem, 2020)
